Consider one compound from PMC7287080, “Distinct pre-initiation steps in human mitochondrial translation” (Nature Communications, 2020).

For this assay, the target named is T1, mtIF2 (in mtPIC-2, mtSSU-mtIF2-mtIF3) (Homo sapiens, UniProt P46199).
T1 construct: mature mtIF2 residues 38-727, codon-optimized, pET-24b, E. coli Rosetta 2, Ni resin (His-tag implied) and gel filtration; with Translation initiation factor IF-3, mitochondrial
The assay is described as follows: cryo-EM structure. The format is binding. The note with it: GTPase G-domain site, preactive state; mtIF2 (1 uM) preincubated with 2.5 mM GDPNP; mtSSU-mtIF3 bound; 25 mM HEPES-KOH pH 7.5, 5 mM Mg(OAc)2, 100 mM KCl; 3.1 A map.

In the case of `Nc1nc2c(ncn2[C@@H]2O[C@H](COP(=O)(O)OP(=O)(O)NP(=O)(O)O)[C@@H](O)[C@H]2O)c(=O)[nH]1` [GDPNP], the cryo-EM structure entry is “The G-domain-bound GDPNP is found in close proximity to the mtIF2-domain III”.
